For twelve compounds, T/C results are on record in PubChem BioAssay AID212 (DTP/NCI, 2004).

In the assay the test system is BDF1 mice, colon carcinoma 38 sc, T/C %. Description: NCI In Vivo Anticancer Drug Screen. Data for tumor model Colon Carcinoma 38 (subcutaneous) in B6D2F1 (BDF1) mice. In a few lines: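 Compound antitumor activity was assessed in mice carrying transplantable tumors. Survival or tumor size was recorded, and each value is the treated-group measurement divided by that of the vehicle-treated control group.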

Where [1] appears, read: endpoint: median tumor weight (est.), dose: 100.0 mg/kg/injection, schedule: Q07DX002 (ip), vehicle: Klucel (hydroxypropylcellulose) (HPC), higher = larger tumour.
Setting [2] is: endpoint: median tumor weight (est.), dose: 200.0 mg/kg/injection, schedule: Q07DX002 (ip), vehicle: Klucel (hydroxypropylcellulose) (HPC), higher = larger tumour.
[3] abbreviates: endpoint: median tumor weight (est.), dose: 400.0 mg/kg/injection, schedule: Q07DX002 (ip), vehicle: Klucel (hydroxypropylcellulose) (HPC), higher = larger tumour.
Setting [4] is: endpoint: median tumor weight (est.), dose: 25.0 mg/kg/injection, schedule: Q07DX002 (ip), vehicle: saline with Tween-80, higher = larger tumour.
The mark [5] stands for this setting: endpoint: median tumor weight (est.), dose: 50.0 mg/kg/injection, schedule: Q07DX002 (ip), vehicle: saline with Tween-80, higher = larger tumour.
[6] abbreviates: endpoint: median tumor weight (est.), dose: 50.0 mg/kg/injection, schedule: Q07DX002 (ip), vehicle: saline, higher = larger tumour.
The mark [7] stands for this setting: endpoint: median tumor weight (est.), dose: 200.0 mg/kg/injection, schedule: Q07DX002 (ip), vehicle: saline, higher = larger tumour.
Setting [8] is: endpoint: median tumor weight (est.), dose: 25.0 mg/kg/injection, schedule: Q07DX002 (ip), vehicle: Klucel (hydroxypropylcellulose) (HPC), higher = larger tumour.
Where [9] appears, read: endpoint: median tumor weight (est.), dose: 50.0 mg/kg/injection, schedule: Q07DX002 (ip), vehicle: Klucel (hydroxypropylcellulose) (HPC), higher = larger tumour.

Structures are written as SMILES. Where “and” joins values, the source holds several entries; their conditions need not be identical. Equal entries are not always repeated. Records with an inconclusive call do not appear.

With `CC1CCC(NC(=O)N(CCCl)N=O)CC1` (centres undefined), the T/C runs as follows: (endpoint: median survival time, dose: 3.3 mg/kg/injection, schedule: Q01DX010 (oral), vehicle: saline with Tween-80, higher = longer survival) 115 % of control; (endpoint: median survival time, dose: 5.0 mg/kg/injection, schedule: Q04DX005 (ip), vehicle: other, higher = longer survival) 93 % of control; (endpoint: median survival time, dose: 5.5 mg/kg/injection, schedule: Q01DX010 (oral), vehicle: saline with Tween-80, higher = longer survival) 99 % of control; (endpoint: median survival time, dose: 9.0 mg/kg/injection, schedule: Q01DX010 (oral), vehicle: saline with Tween-80, higher = longer survival) 100 % of control; (endpoint: median survival time, dose: 10.0 mg/kg/injection, schedule: Q04DX005 (ip), vehicle: other, higher = longer survival) 122 % of control; (endpoint: median survival time, dose: 20.0 mg/kg/injection, schedule: Q04DX005 (ip), vehicle: other, higher = longer survival) 153 % of control. The T/C reads like this: (endpoint: median tumor weight (est.), dose: 4.0 mg/kg/injection, schedule: Q07DX002 (ip), vehicle: Klucel (hydroxypropylcellulose) (HPC), higher = larger tumour) 61 % of control; (endpoint: median tumor weight (est.), dose: 8.0 mg/kg/injection, schedule: Q07DX002 (ip), vehicle: Klucel (hydroxypropylcellulose) (HPC), higher = larger tumour) 53 % of control; (endpoint: median tumor weight (est.), dose: 16.0 mg/kg/injection, schedule: Q07DX002 (ip), vehicle: Klucel (hydroxypropylcellulose) (HPC), higher = larger tumour) 64 % of control; (endpoint: median tumor weight (est.), dose: 32.0 mg/kg/injection, schedule: Q07DX002 (ip), vehicle: Klucel (hydroxypropylcellulose) (HPC), higher = larger tumour) 18 % of control.
In the case of `CCN(CC)CCNC(=O)Cc1cccc2c(=O)cc(-c3ccccc3)oc12`, the T/C runs as follows: under setting [1], 101 % of control; under setting [2], 96 % of control; under setting [3], 68 % of control.
Turning to `NC(=O)CC(N)C(=O)O` (centres undefined), the T/C is 72 % of control (endpoint: median tumor weight (est.), dose: 50.0 mg/kg/injection, schedule: Q07DX002 (ip), vehicle: other, higher = larger tumour); 85 % of control (endpoint: median tumor weight (est.), dose: 100.0 mg/kg/injection, schedule: Q07DX002 (ip), vehicle: other, higher = larger tumour); 79 % of control (endpoint: median tumor weight (est.), dose: 200.0 mg/kg/injection, schedule: Q07DX002 (ip), vehicle: other, higher = larger tumour); 91 % of control (endpoint: median tumor weight (est.), dose: 400.0 mg/kg/injection, schedule: Q07DX002 (ip), vehicle: other, higher = larger tumour); 118 % of control (endpoint: median tumor weight (est.), dose: 800.0 mg/kg/injection, schedule: Q07DX002 (ip), vehicle: other, higher = larger tumour); 88 % of control (endpoint: median tumor weight (est.), dose: 1600.0 mg/kg/injection, schedule: Q07DX002 (ip), vehicle: other, higher = larger tumour).
Turning to `CCCCCC#CC1OC12CCCCC2` (centres undefined), the T/C is, setting by setting: (endpoint: median tumor weight (est.), dose: 6.25 mg/kg/injection, schedule: Q07DX002 (ip), vehicle: saline, higher = larger tumour) 17 % of control; (endpoint: median tumor weight (est.), dose: 12.5 mg/kg/injection, schedule: Q07DX002 (ip), vehicle: saline with Tween-80, higher = larger tumour) 88 % of control; under setting [4], 122 % of control; (endpoint: median tumor weight (est.), dose: 25.0 mg/kg/injection, schedule: Q07DX002 (ip), vehicle: saline, higher = larger tumour) 64 % of control and 66 % of control; under setting [5], 91 % of control; under setting [6], 24 % of control. The T/C by setting is: (endpoint: median tumor weight (est.), dose: 100.0 mg/kg/injection, schedule: Q07DX002 (ip), vehicle: saline with Tween-80, higher = larger tumour) 169 % of control; (endpoint: median tumor weight (est.), dose: 200.0 mg/kg/injection, schedule: Q07DX002 (ip), vehicle: saline with Tween-80, higher = larger tumour) 103 % of control; under setting [7], 38 % of control and 41 % of control.
For `CN(C)c1ccc2c(NCCCCCCNc3ccnc4cc(N(C)C)ccc34)ccnc2c1`, the T/C is, setting by setting: (endpoint: median tumor weight (est.), dose: 3.12 mg/kg/injection, schedule: Q07DX002 (ip), vehicle: distilled water + Tween-80 + alcohol, higher = larger tumour) 81 % of control; (endpoint: median tumor weight (est.), dose: 6.25 mg/kg/injection, schedule: Q07DX002 (ip), vehicle: distilled water + Tween-80 + alcohol, higher = larger tumour) 77 % of control; (endpoint: median tumor weight (est.), dose: 12.5 mg/kg/injection, schedule: Q07DX002 (ip), vehicle: distilled water + Tween-80 + alcohol, higher = larger tumour) 62 % of control; (endpoint: median tumor weight (est.), dose: 25.0 mg/kg/injection, schedule: Q07DX002 (ip), vehicle: distilled water + Tween-80 + alcohol, higher = larger tumour) 62 % of control; (endpoint: median tumor weight (est.), dose: 50.0 mg/kg/injection, schedule: Q07DX002 (ip), vehicle: distilled water + Tween-80 + alcohol, higher = larger tumour) 47 % of control; (endpoint: median tumor weight (est.), dose: 100.0 mg/kg/injection, schedule: Q07DX002 (ip), vehicle: distilled water + Tween-80 + alcohol, higher = larger tumour) 20 % of control.
On to `O=C(O)Cc1cccc2c(=O)c(-c3ccccc3)c(-c3ccccc3)oc12`, for which the T/C under setting [8] was 90 % of control and the T/C under setting [9] was 92 % of control.
`CCC(=O)O[C@H]1CC[C@H]2[C@@H]3CCC4=CC(=O)CC[C@]4(C)[C@H]3CC[C@]12C`: the T/C is 72 % of control (endpoint: median tumor weight (est.), dose: 20.0 mg/kg/injection, schedule: Q07DX002 (ip), vehicle: Klucel (hydroxypropylcellulose) (HPC), higher = larger tumour); 71 % of control and 81 % of control (endpoint: median tumor weight (est.), dose: 40.0 mg/kg/injection, schedule: Q07DX002 (ip), vehicle: Klucel (hydroxypropylcellulose) (HPC), higher = larger tumour); 60 % of control (endpoint: median tumor weight (est.), dose: 40.0 mg/kg/injection, schedule: Q07DX002 (ip), vehicle: suspension in saline, higher = larger tumour); 93 % of control (endpoint: median tumor weight (est.), dose: 80.0 mg/kg/injection, schedule: Q07DX002 (ip), vehicle: suspension in saline, higher = larger tumour); 86 % of control (endpoint: median tumor weight (est.), dose: 160.0 mg/kg/injection, schedule: Q07DX002 (ip), vehicle: suspension in saline, higher = larger tumour); 99 % of control (endpoint: median tumor weight (est.), dose: 320.0 mg/kg/injection, schedule: Q07DX002 (ip), vehicle: suspension in saline, higher = larger tumour). Besides, the T/C by setting is: (endpoint: median tumor weight (est.), dose: 640.0 mg/kg/injection, schedule: Q07DX002 (ip), vehicle: Klucel (hydroxypropylcellulose) (HPC), higher = larger tumour) 89 % of control and 100 % of control and 101 % of control; (endpoint: median tumor weight (est.), dose: 640.0 mg/kg/injection, schedule: Q07DX002 (ip), vehicle: suspension in saline, higher = larger tumour) 86 % of control.
For `O=C(CCCN1CCC(O)(c2cccc(C(F)(F)F)c2)CC1)c1ccc(F)cc1`, the T/C reads like this: (endpoint: median tumor weight (est.), dose: 6.25 mg/kg/injection, schedule: Q07DX003 (ip), vehicle: Klucel (hydroxypropylcellulose) (HPC), higher = larger tumour) 78 % of control and 80 % of control; (endpoint: median tumor weight (est.), dose: 12.5 mg/kg/injection, schedule: Q07DX003 (ip), vehicle: Klucel (hydroxypropylcellulose) (HPC), higher = larger tumour) 84 % of control and 95 % of control; (endpoint: median tumor weight (est.), dose: 25.0 mg/kg/injection, schedule: Q07DX003 (ip), vehicle: Klucel (hydroxypropylcellulose) (HPC), higher = larger tumour) 113 % of control and 93 % of control; (endpoint: median tumor weight (est.), dose: 50.0 mg/kg/injection, schedule: Q07DX003 (ip), vehicle: Klucel (hydroxypropylcellulose) (HPC), higher = larger tumour) 100 % of control.
With `Cc1cc(N(CCOS(C)(=O)=O)CCOS(C)(=O)=O)ccc1C=Nc1ccc(-c2nc(Cc3ccccc3)sc2C)cc1`, the T/C was 112 % of control and 91 % of control (endpoint: median tumor weight (est.), dose: 12.5 mg/kg/injection, schedule: Q07DX002 (ip), vehicle: Klucel (hydroxypropylcellulose) (HPC), higher = larger tumour); 100 % of control and 102 % of control under setting [8]; 112 % of control and 98 % of control under setting [9]; 63 % of control and 76 % of control under setting [1]; 18 % of control and 30 % of control under setting [2].
Consider `CN(CCN(C)C(=O)CCOS(C)(=O)=O)C(=O)CCOS(C)(=O)=O`, for which the T/C was 75 % of control and 94 % of control under setting [6]; 48 % of control and 63 % of control (endpoint: median tumor weight (est.), dose: 100.0 mg/kg/injection, schedule: Q07DX002 (ip), vehicle: saline, higher = larger tumour); 25 % of control and 43 % of control under setting [7].
As for `NC(=O)c1ncn(C2OC(CO)C(O)C2O)c1O` (centres undefined), the T/C is 118 % of control under setting [8]; 51 % of control (endpoint: median tumor weight (est.), dose: 28.0 mg/kg/injection, schedule: Q07DX002 (ip), vehicle: Klucel (hydroxypropylcellulose) (HPC), higher = larger tumour); 90 % of control under setting [9]; 48 % of control (endpoint: median tumor weight (est.), dose: 56.0 mg/kg/injection, schedule: Q07DX002 (ip), vehicle: Klucel (hydroxypropylcellulose) (HPC), higher = larger tumour); 79 % of control (endpoint: median tumor weight (est.), dose: 112.0 mg/kg/injection, schedule: Q07DX002 (ip), vehicle: Klucel (hydroxypropylcellulose) (HPC), higher = larger tumour); 114 % of control and 98 % of control under setting [2]. In addition, the T/C is 68 % of control (endpoint: median tumor weight (est.), dose: 225.0 mg/kg/injection, schedule: Q07DX002 (ip), vehicle: Klucel (hydroxypropylcellulose) (HPC), higher = larger tumour); 105 % of control and 107 % of control under setting [3]; 61 % of control (endpoint: median tumor weight (est.), dose: 450.0 mg/kg/injection, schedule: Q07DX002 (ip), vehicle: Klucel (hydroxypropylcellulose) (HPC), higher = larger tumour); 75 % of control (endpoint: median tumor weight (est.), dose: 800.0 mg/kg/injection, schedule: Q07DX002 (ip), vehicle: Klucel (hydroxypropylcellulose) (HPC), higher = larger tumour); 61 % of control (endpoint: median tumor weight (est.), dose: 900.0 mg/kg/injection, schedule: Q07DX002 (ip), vehicle: Klucel (hydroxypropylcellulose) (HPC), higher = larger tumour).
As to `O=S(=O)(c1ccccc1)N1CN2CCN(C2)C1`, the T/C by setting is: under setting [4], 94 % of control; under setting [5], 62 % of control.
